Laboratory results taken from the OligoGym collection.
Values joined by “and” are separate entries in the source; they are usually repeats but may differ in a detail not shown here. Equal values may be shown once. After the bases stand the sugars from the 5' end (letter, count) and the backbone: PS all phosphorothioate, else s phosphorothioate and o phosphodiester by linkage. Methylation of C is not given here. e = 2'-O-(2-methoxyethyl) (MOE); k = constrained ethyl (cEt); d = 2'-deoxy (DNA)

Biological target: IRF4
Conditions: ASO

Sequence | target mRNA inhibition (SK-MEL-28, 4 µM) | target mRNA inhibition (MM.1R, 1 µM) | also measured
TCTCACGCAGTGCACC (sugars k3 d10 k3, PS) | 44% |  | 
TCTGAATTGTTACTAA (sugars k3 d10 k3, PS) | 35% |  | 
TCTGAGCAGAACGAGG (sugars k3 d10 k3, PS) | 47% |  | 
TCTGAGGGTCTGGAAA (sugars k4 d8 k4, PS) | 3% |  | 
TCTGATCCGGACTCTC (sugars k3 d10 k3, PS) | 41% |  | 
TCTTACTCCGCTGAGT (sugars k3 d10 k3, PS) | 35% |  | 
TCTTATGCATGTTCCT (sugars k3 d10 k3, PS) | 62% |  | 
TCTTTATAGTAGGTAA (sugars k3 d10 k3, PS) |  | 14% | 
TCTTTATGCGAAGAAT (sugars k3 d10 k3, PS) | 42% |  | 
TGACAGCCGAAGCATT (sugars k3 d10 k3, PS) | 38% |  | 
TGACATAAAGGACCCC (sugars k3 d10 k3, PS) | 48% |  | 
TGAGAAAGCATGGCTC (sugars k3 d10 k3, PS) | 40% |  | 
TGAGACTACACCTACA (sugars k3 d10 k3, PS) | 19% |  | 
TGAGAGTAAACTTGGC (sugars k3 d10 k3, PS) | 65% | 20% | target mRNA inhibition (MM.1R, 0.0625 µM): -3%; target mRNA inhibition (MM.1R, 0.074 µM): 5%; target mRNA inhibition (MM.1R, 0.222 µM): 1%; target mRNA inhibition (MM.1R, 0.25 µM): 11%; target mRNA inhibition (MM.1R, 0.666 µM): 18%; target mRNA inhibition (MM.1R, 2 µM): 32%; target mRNA inhibition (MM.1R, 4 µM): 44%
TGAGATGCGGAGGTTC (sugars k3 d10 k3, PS) |  | 33% and 27% | 
TGATAAAGGCTGAACT (sugars k3 d10 k3, PS) | 41% |  | 
TGATAGCTGAGCTGAT (sugars kddddddddddkekek, PS) |  | 22% | 
TGATGGAGAAACGAGC (sugars k3 d10 k3, PS) |  | -2% | 
TGATGTGATAGCTGAG (sugars kdddddddddkekeke, PS) |  | 47% | 
TGCATAGTGATGAGAT (sugars k3 d10 k3, PS) | 37% |  | 
TGCCAAAGAGCCCAAT (sugars k3 d10 k3, PS) |  | -19% | 
TGCCACAGTTGAACCC (sugars k3 d10 k3, PS) | 50% |  | 
TGCCAGTTCCTTGTGA (sugars k3 d10 k3, PS) |  | -2% | 
TGCCCAATACATATCC (sugars k3 d10 k3, PS) | 59% |  | 
TGCCGAACTCTCCGCC (sugars k3 d10 k3, PS) | 43% |  | 

Sequence | target mRNA inhibition (SK-MEL-28, 4 µM) | target mRNA inhibition (MM.1R, 1 µM) | also measured
TGCCTTACCTGACAAG (sugars k3 d10 k3, PS) |  | 4% | 
TGCCTTGTGACATAAA (sugars k3 d10 k3, PS) | 45% |  | 
TGCTAAAGGAGTGCAG (sugars k3 d10 k3, PS) |  | -17% | 
TGCTAGATTCTCCCTG (sugars k3 d10 k3, PS) | 33% |  | 
TGCTAGGATTCCTAAC (sugars k3 d10 k3, PS) | 26% |  | 
TGCTGATGTGTTCTGG (sugars k3 d10 k3, PS) | 67% and 58% |  | 
TGCTTGAATTCCTTGA (sugars k3 d10 k3, PS) | 67% | 23% and 25% | target mRNA inhibition (MM.1R, 0.0625 µM): -6% and -14%; target mRNA inhibition (MM.1R, 0.074 µM): 13%; target mRNA inhibition (MM.1R, 0.222 µM): 12%; target mRNA inhibition (MM.1R, 0.25 µM): 1% and -8%; target mRNA inhibition (MM.1R, 0.666 µM): 23%; target mRNA inhibition (MM.1R, 2 µM): 39%; target mRNA inhibition (MM.1R, 4 µM): 53% and 68%
TGCTTGAGGTTTTCCT (sugars k2 d9 e3 k2, PS) |  | 32% | 
TGCTTGAGGTTTTCCT (sugars kkdddddddddekeke, PS) |  | 45% | 
TGCTTGAGGTTTTCCT (sugars kkdddddddddkdkdk, PS) |  | 45% | 
TGCTTTGCAGCATTGG (sugars k3 d10 k3, PS) |  | 30% | 
TGGACACTTTTAGAGA (sugars k3 d10 k3, PS) | 72% |  | 
TGGACCCACGAAGATT (sugars k3 d10 k3, PS) | 38% |  | 
TGGCAACCATTTTCAC (sugars k3 d10 k3, PS) | 7% |  | 
TGGCACGAGGAAGCAT (sugars k3 d10 k3, PS) | 46% |  | 
TGGCAGTGGAGCTCCA (sugars k3 d10 k3, PS) | 46% |  | 
TGGCCACAGAGGACTT (sugars k3 d10 k3, PS) | 33% |  | 
TGGGATTATATACTGG (sugars k2 d9 e3 k2, PS) |  | 54% | 
TGGGATTATATACTGG (sugars kddddddddddkekek, PS) |  | 43% | 
TGGTACACCTCTTCAC (sugars k3 d10 k3, PS) | 32% |  | 
TGGTAGGTCAAACTCC (sugars k3 d10 k3, PS) | -13% |  | 
TGGTTCTCTATAGTGT (sugars k3 d10 k3, PS) | 71% |  | 
TGGTTGGCTGGTCTTT (sugars k2 d9 e3 k2, PS) |  | 40% | 
TGGTTGGCTGGTCTTT (sugars kkddddddddddkeke, PS) |  | 80% and 68% | target mRNA inhibition (MM.1R, 0.0625 µM): 41%; target mRNA inhibition (MM.1R, 0.25 µM): 56%; target mRNA inhibition (MM.1R, 4 µM): 85%
TGTAACAGGCTATCAG (sugars k3 d10 k3, PS) | 31% |  | 

Sequence | target mRNA inhibition (SK-MEL-28, 4 µM) | target mRNA inhibition (MM.1R, 1 µM) | also measured
TGTAACTGACTAACAG (sugars k3 d10 k3, PS) |  | -31% | 
TGTAAGTGATAGGTAT (sugars k3 d10 k3, PS) | 53% |  | 
TGTAGAAGCCCACAAG (sugars k3 d10 k3, PS) |  | -7% | 
TGTAGTATGAGAAACG (sugars k2 d9 e3 k2, PS) |  | 7% | 
TGTAGTATGAGAAACG (sugars k3 d10 k3, PS) | 69% |  | 
TGTAGTATGAGAAACG (sugars kkdddddddddekeke, PS) |  | 13% | 
TGTCAAACCCTACTGG (sugars k3 d10 k3, PS) | 23% |  | 
TGTCAAACTATAATTG (sugars k3 d10 k3, PS) | 15% |  | 
TGTCAATACTGAAAGG (sugars k3 d10 k3, PS) | 36% |  | 
TGTGAACCTGCTAAAG (sugars k3 d10 k3, PS) |  | -10% | 
TGTGAAGCATCCTTTC (sugars k3 d10 k3, PS) | 45% |  | 
TGTGATAGCTGAGCTG (sugars kdddddddddkekeke, PS) |  | 18% | 
TGTGCTTGCCAAGCCT (sugars kdddddddddkekeke, PS) |  | -3% and 16% | 
TGTGCTTGCCAAGCCT (sugars kkddddddddddkeke, PS) |  | 26% and 30% | 
TGTGCTTGCCAAGCCT (sugars kkdddddddddkekek, PS) |  | 2% and 18% | 
TGTGTATTACTCTTAG (sugars k2 d9 e3 k2, PS) |  | 41% and 24% | 
TGTGTATTACTCTTAG (sugars k3 d10 k3, PS) |  | 75% and 62% | target mRNA inhibition (MM.1R, 0.0625 µM): 3%; target mRNA inhibition (MM.1R, 0.25 µM): 20%; target mRNA inhibition (MM.1R, 4 µM): 93%
TGTGTATTACTCTTAG (sugars kkddddddddddkeke, PS) |  | 51% and 39% | 
TGTGTATTACTCTTAG (sugars kkdddddddddkdkdk, PS) |  | 81% and 71% and 72% | target mRNA inhibition (H929, 0.04 µM): 40% and 47%; target mRNA inhibition (KMS11, 0.2 µM): 62% and 74%; target mRNA inhibition (MM.1R, 0.0625 µM): 54%; target mRNA inhibition (MM.1R, 0.25 µM): 62%; target mRNA inhibition (MM.1R, 4 µM): 91%
TGTTACCGATGCTTCA (sugars k2 d9 e3 k2, PS) |  | 31% and 39% | 
TGTTACCGATGCTTCA (sugars kddddddddddkekek, PS) |  | 26% and 18% | 
TGTTACCGATGCTTCA (sugars kkdddddddddkdkdk, PS) |  | 35% and 26% | 
TGTTACTTGCCACAGT (sugars k3 d10 k3, PS) | 39% |  | 
TTAAACAGTGCCCAAG (sugars k3 d10 k3, PS) | 21% |  | 
TTAAAGATGCCAGAGG (sugars k3 d10 k3, PS) | 28% |  | 

Sequence | target mRNA inhibition (SK-MEL-28, 4 µM) | target mRNA inhibition (MM.1R, 1 µM) | also measured
TTAAAGGAGTGCAGGA (sugars k3 d10 k3, PS) | 16% |  | 
TTAACCAATCCCAACA (sugars k3 d10 k3, PS) | 30% |  | 
TTAAGATTTATGTTCC (sugars k3 d10 k3, PS) | 64% |  | 
TTAATCTGTCTAAACC (sugars k3 d10 k3, PS) | 16% |  | 
TTACATCTTACTTCCC (sugars k3 d10 k3, PS) | 42% |  | 
TTACCATTTTCACAAG (sugars k4 d8 k4, PS) | 7% |  | 
TTACGAGAGGGTCTGA (sugars k3 d10 k3, PS) | 51% |  | 
TTACGCTTATTTTTCC (sugars k3 d10 k3, PS) |  | 39% | 
TTACTAACTGGCTTCC (sugars k3 d10 k3, PS) | 49% |  | 
TTACTAGGTGCTTGTT (sugars k3 d10 k3, PS) | 50% |  | 
TTACTCCGCTGAGTGG (sugars k3 d10 k3, PS) |  | -4% | 
TTACTCTTAGGCACAT (sugars k3 d10 k3, PS) |  | 44% and 45% | 
TTACTGTTACCGATGC (sugars k3 d10 k3, PS) |  | 26% and 35% | 
TTACTTAGACATTACT (sugars k3 d10 k3, PS) | 48% |  | 
TTACTTCCCTGAGAAA (sugars k3 d10 k3, PS) | 20% |  | 
TTAGAATGCATAACAC (sugars k3 d10 k3, PS) | 44% |  | 
TTAGACTGACAGCCGA (sugars k3 d10 k3, PS) | 53% |  | 
TTAGAGGACAGTGACT (sugars k3 d10 k3, PS) | 18% |  | 
TTAGCCAATTCCTCCA (sugars k3 d10 k3, PS) |  | 36% and 47% | 
TTATACTGTCTGGTTA (sugars k3 d10 k3, PS) | 44% |  | 
TTATATACTGGTTGGT (sugars kkdddddddddekeke, PS) |  | 64% | 
TTATATACTGGTTGGT (sugars kkdddddddddkekek, PS) |  | 50% | 
TTATCATCCGAAAAGA (sugars k3 d10 k3, PS) |  | 4% | 
TTATCTTCCCTTAGGA (sugars k3 d10 k3, PS) | 28% |  | 
